In ChEMBL document CHEMBL4270553, “Synthesis and anticancer activity of new dihydropyrimidinone derivatives” (Eur J Med Chem, 2018):

What was measured:
[1] = target: Kinesin-like protein KIF11 (Homo sapiens, UniProt P52732); assay: Inhibition of human Eg5
NCI-H1299 = assay: Cytotoxicity against human NCI-H1299 cells after 24 hrs by MTT assay; assay type: functional, cell-based; settings: NCI-H1299, 24 h
PC-3 = assay: cells; settings: Homo sapiens, PC-3, 24 h
Description: Cytotoxicity against human PC3 cells after 24 hrs by MTT assay

Chain of Kinesin-like protein KIF11 (P52732 whole entry): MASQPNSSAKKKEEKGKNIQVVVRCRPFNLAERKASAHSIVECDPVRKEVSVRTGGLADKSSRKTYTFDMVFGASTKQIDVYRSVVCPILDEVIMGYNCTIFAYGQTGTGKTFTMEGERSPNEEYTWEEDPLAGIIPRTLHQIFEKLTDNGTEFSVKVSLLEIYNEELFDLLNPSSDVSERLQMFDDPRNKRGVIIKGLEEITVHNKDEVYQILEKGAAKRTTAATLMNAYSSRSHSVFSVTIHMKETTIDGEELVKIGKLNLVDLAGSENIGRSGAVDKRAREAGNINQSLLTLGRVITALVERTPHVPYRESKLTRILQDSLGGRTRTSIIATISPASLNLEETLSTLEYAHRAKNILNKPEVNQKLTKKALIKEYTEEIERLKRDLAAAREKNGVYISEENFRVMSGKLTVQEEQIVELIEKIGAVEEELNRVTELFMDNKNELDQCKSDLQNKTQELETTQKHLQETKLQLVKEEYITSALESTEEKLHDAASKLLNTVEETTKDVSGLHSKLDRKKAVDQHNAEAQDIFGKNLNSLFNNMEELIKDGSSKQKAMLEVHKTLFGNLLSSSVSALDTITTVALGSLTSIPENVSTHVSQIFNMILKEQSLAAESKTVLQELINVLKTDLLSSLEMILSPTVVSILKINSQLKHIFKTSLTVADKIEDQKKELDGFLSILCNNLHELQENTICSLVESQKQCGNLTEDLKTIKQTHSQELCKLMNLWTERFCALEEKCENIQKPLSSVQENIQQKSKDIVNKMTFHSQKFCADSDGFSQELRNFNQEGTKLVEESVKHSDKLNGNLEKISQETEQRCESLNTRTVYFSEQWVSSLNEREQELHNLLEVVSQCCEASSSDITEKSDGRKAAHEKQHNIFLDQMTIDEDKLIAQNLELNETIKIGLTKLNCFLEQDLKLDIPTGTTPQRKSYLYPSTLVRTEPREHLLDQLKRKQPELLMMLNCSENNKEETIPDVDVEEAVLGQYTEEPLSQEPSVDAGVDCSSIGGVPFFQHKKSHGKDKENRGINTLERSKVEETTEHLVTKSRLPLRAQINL

IC50 [1] [µM]	IC50 (PC-3) [µM]	SMILES	IC50 (NCI-H1299) [µM]
14	–	CCOC(=O)C1=C(C)NC(=O)NC1c1cccc(O)c1 (stereo not drawn)	–
–	37	CCOC(=O)C1=C(C)Nc2nc3ccccc3n2C1c1c(O)ccc2ccccc12 (stereo not drawn)	40
